Measurements: patent publication US20140093942A1, “GENE, ARS-R ANCHORAGE CASSETTE, ARS-R EXPRESSION-ANCHORAGE CASSETTE, RECOMBINANT PLASMID, BACTERIAL TRANSGENIC LINEAGE, USE OF SAID GENE, USE OF SAID LINEAGE IN ENVIRONMENTAL BIOREMEDIATION PROCESSES” (UNIVERSIDADE DE SÃO PAULO - USP, priority 2012, published 2014)

How the values were obtained:
C. metallidurans CH34 = test: Minimal Inhibitory Concentration (MIC) of Na3As04, wild type C. metallidurans CH34; type: cell-based, Cupriavidus metallidurans; details: Na3As04 0-1,000 mM, 28° C., 48 h, OD600
Description: After incubation at 28° C. for 48 h, the bacterial growth was measured by reading the absorbance at 600 nm (OD600) in a spectrophotometer.
The MIC of C. metallidurans CH34 and C. metallidurans CH34/pCM-As cells against As5+ ions were also studied. […] The MIC of Na3As04 for C. metallidurans CH34/pCM-As was above 1,000 mM, indicating an increase in survivability to As5+ ions above 100% (FIG. 11B). The bacterial growth for the MIC assays was quantified by Absorbance reading at 600 nm (FIG. 11C). The assays were performed in triplicate, showing similar results.

E. coli UT5600 = test: Minimal Inhibitory Concentration (MIC) of Na3As04, wild type E. coli UT5600; type: cell-based, Escherichia coli; details: Na3As04 0-50 mM, 28° C., 48 h, OD600
Description: (§1) Panel C illustrates the comparison between the growth levels of E. coli wild type and recombinant cells in the presence of different concentrations of Na3As04 ranging from 0-50 mM. After incubation at 28° C. for 48 h, the bacterial growth was measured by reading the absorbance at 600 nm (OD600) in a spectrophotometer.
(§2) To find out whether the recombinant E. coli UT5600/pCM-As lineage had increased resistance to arsenate ions, as compared to the UT5600 lineage from which it is derived, the MIC against Na3As04 of each of the lineages was determined.
(§3) The final bacterial growth in different Na3As04 concentrations was quantified by Absorbance reading at 600 ηm (FIG. 10C). The assays were performed in triplicate, showing similar results.

E. coli UT5600/pCM-As = test: Minimal Inhibitory Concentration (MIC) of Na3As04, recombinant E. coli UT5600/pCM-As; type: cell-based, Escherichia coli; details: Na3As04 0-50 mM, 28° C., 48 h, OD600
Description: as §1, §2, §3

## sodium arsenate [Na3As04]
C. metallidurans CH34
  Minimum Inhibitory Concentration (MIC): 500 mM
E. coli UT5600
  Minimum Inhibitory Concentration (MIC): 25 mM
E. coli UT5600/pCM-As
  Minimum Inhibitory Concentration (MIC): 50 mM
